From patent US11090267B2, “Rapidly degrading embolic particles with therapeutic agent release” (priority 2014, dated 2021) come the findings set out here.

SMILES strings stand for the structures.

The nature of this data set: incubation in water at 37° C., crystal form conversion (micrographs). It is filed as physicochemical.

`CC(=O)O[C@H]1C(=O)[C@@]2(C)[C@H]([C@H](OC(=O)c3ccccc3)[C@]3(O)C[C@H](OC(=O)[C@H](O)[C@@H](NC(=O)c4ccccc4)c4ccccc4)C(C)=C1C3(C)C)[C@]1(OC(C)=O)CO[C@@H]1C[C@@H]2O` [amorphous paclitaxel, paclitaxel]: the “conversion to dihydrate crystals upon incubation in water” value (amorphous paclitaxel microparticles dispersed in PLGA matrix, water at 37C, FIG. 4) was “coalesce within hours into large, needle-like dihydrate crystals”.

Take `CC(=O)O[C@H]1C(=O)[C@@]2(C)[C@H]([C@H](OC(=O)c3ccccc3)[C@]3(O)C[C@H](OC(=O)[C@H](O)[C@@H](NC(=O)c4ccccc4)c4ccccc4)C(C)=C1C3(C)C)[C@]1(OC(C)=O)CO[C@@H]1C[C@@H]2O` [crystalline anhydrous paclitaxel, paclitaxel]: the “conversion to dihydrate crystals upon incubation in water” value (as-received powder dispersed in water at 37° C., FIGS. 5 and 6) is recorded as “coalesce within hours to large needle-like dihydrate crystals”.
